Paper PMC4949396, “The effects of apremilast on the QTc interval in healthy male volunteers: a formal, thorough QT study” (International Journal of Clinical Pharmacology and …, 2016)
Like-named read-outs stand apart in the source and are kept apart here. Marks after values point to notes of the source that are not given here. Values belong to the compound of their own block, whether it stands above or below them.

Columns and labels:
hERG potassium channel = target: T1, hERG potassium channel (Homo sapiens, UniProt Q12809); experiment: voltage-clamp study of hERG current in HEK293 cells expressing hERG; format: cell-based
T1 construct: expressed in transfected cells; host or cells: HEK-293 cells stably expressing hERG
Description: This IC50 value is > 2 orders of magnitude greater than the maximum plasma concentration (Cmax) values observed in healthy male subjects and in PsA or rheumatoid patients at the highest doses studied. Prolongation of the QT interval is associated with a rare but dangerous ventricular arrhythmia, torsade de pointes, and drug-induced prolongation of the QT interval represents a significant risk. The current study was undertaken to provide definitive evaluation of the clinical potential for prolongation of the QT interval with apremilast.
Furthermore, a structure-activity relationship study has shown that the structure of a PDE4 inhibitor can be optimized for high-potency PDE4 inhibition and minimize or eliminate its affinity for hERG channel by targeted modification of pharmacophores. The structure of apremilast was optimized for PDE4 inhibition and minimal affinity for the hERG channel.

healthy male subjects [1] = experiment: safety assessments (adverse events, vital signs, laboratory tests); format: in vivo, human; conditions: up to doses of 50 mg twice daily
Procedure: Safety assessments were performed at clinic check-in, periodically throughout each treatment period, and at the end-of-study visit and included the measurement of vital signs, recording of standard 12-lead ECGs, collection of samples for clinical laboratory tests, and physical examinations. Adverse events (AEs) and concomitant medication use were assessed and recorded throughout the study.

[2] = parameters: method as in PMID 21859393; conditions: cited from earlier work
[3] = parameters: method as in PMID 26097790; conditions: 30 mg b.i.d., cited from earlier work
healthy male subjects [4] = experiment: exploratory PK/PD relationship between ΔΔQTcI and plasma concentration (linear mixed-effect model); format: in vivo, human; conditions: for relationship between changes in QT/QTc interval and plasma concentration: in vivo; for estimated slope (SE) of ΔΔQTcI vs plasma concentration: linear regression, random effect model, pooled doses
Procedure: The PK/PD analysis was performed using a linear mixed-effect model to explore the relationship between the ΔΔQTcI and plasma concentrations for apremilast, M12, M14, and M16, and to estimate the population slope (β) and standard error of slope (SEβ). The expected maximum ΔΔQTcI effect for each dose and each analyte was estimated using the slope and average Cmax with one-sided upper limit 95% CIs.

[5] = plasma pharmacokinetics on day 5 after multiple oral doses of apremilast in healthy male subjects; format: in vivo, human; conditions: for AUC / AUC0–τ, geometric mean (geometric CV%): τ 12 hours; for AUC: read-out: AUC0–τ, geometric mean (geometric CV%); for Tmax: read-out: tmax, median (minimum–maximum)
Procedure: PK parameters were derived using noncompartmental methods with WinNonlin® Professional version 5.1.2 (Pharsight Corporation, Mountain View, CA, USA). […] For determination of PK parameters (terminal elimination rate constant (Kel), time to maximum plasma concentration (tmax), and terminal half-life (t1/2)), plasma concentrations for apremilast and its major metabolites below the limit of quantitation (BLQ) were treated as missing except for the calculation of area under the plasma concentration-time curve (AUC). To calculate AUC, BLQ or missing concentrations in the beginning and end of profile were replaced with zero, and BLQ or missing concentrations in the middle of the profile were interpolated.
Blood samples were collected in lithium heparin tubes and plasma was separated. The plasma samples, fortified with Sorensen’s buffer (25 mM citrate, pH 1.5) containing amastatin 20 µM (1 : 1/v : v), were analyzed by two validated liquid chromatography/tandem mass spectrometry methods, one for determination of apremilast and the other for its metabolites M12 (CC-16166), M14 (CC-16793), and M16 (CC-16557).

healthy male subjects [6] = experiment: thorough QT/QTc study, 24-hour digital Holter ECG (QTc, HR, PR); conditions: for decrease of time-matched, baseline-adjusted LS mean PR interval (ΔΔPR): 2 hours postdose; for effect on the QT/QTc interval: overall conclusion of the study
Procedure: This was a single-center, randomized, crossover study with 4 treatments, 4 periods, and 4 sequences conducted in healthy male subjects. Apremilast (Otezla; Celgene Corporation, Summit, NJ, USA) was administered in a double-blind manner with matching placebo, and moxifloxacin was administered in an open-label manner. The core central electrocardiogram (ECG) laboratory staff, including those reading the ECGs, was blinded to treatment, sequence time, and subject identifiers.
The 4 treatments evaluated in this study included an apremilast-matched placebo administered twice daily (b.i.d.) for 9 doses (~ 5 days), a clinically relevant dose of apremilast 30 mg administered b.i.d. for 9 doses, a supratherapeutic dose of apremilast 50 mg administered b.i.d. for 9 doses, and placebo administered on days 1 – 4 followed by a single dose of moxifloxacin 400 mg on day 5. Subjects fasted for at least 8 hours before the morning dose or before the start of Holter monitoring on days –1 and 5.
ECGs were analyzed for ventricular HR, PR, QRS, RR, and QT intervals and morphological changes. Mean of the triplicate ECGs at each nominal time point was used for all reporting and analysis; however, individual values were used to calculate the correction coefficient (γ) for QTcI. The QTc corrections were individual correction by QTcI = QT/RR^γ, Fridericia’s by QTcF = QT/RR^0.33, and Bazett’s by QTcB = QT/RR^0.5. Individual correction coefficient, γ, was estimated using linear regression of log QT on log RR for each subject using all baseline ECG assessments collected before day 1 dosing in period 1 within a subject. Change from baseline was calculated as the average of the three predose assessments on day 1 of the corresponding treatment period subtracted from the value (i.e., QTc) on day 5 at a given time t. Double-delta (ΔΔ) values for various cardiac parameters (i.e., ΔΔQTcI, ΔΔQTcB, etc.) were determined as the change from baseline value relative to placebo at the same scheduled time.
At each time point, difference in least-squares (LS) means was estimated between the LS means of each apremilast dose and placebo (with placebo as reference). Two-sided 90% confidence intervals (CIs) were produced for the comparisons.
The effect of QTcI for moxifloxacin was assessed at 1, 1.5, 2, 3, and 4 hours postdose to assess assay sensitivity. At each time point, the ΔΔ value was estimated between the LS means of moxifloxacin and placebo. […] If at least one of the CIs completely exceeded 5 ms, then the assay was declared sensitive.
For secondary analyses, a Student’s t-test was performed comparing each dose of apremilast vs. placebo and between moxifloxacin and placebo at each time point. Two-sided 90% CIs were produced for the comparisons. The effect of apremilast on QTcF, QTcB, HR, PR, and QT was assessed using the same linear mixed model from the primary analysis. […] The model included treatment group, period, sequence, and baseline ECG interval as a covariate, and subject nested within sequence as a random effect.
If a subject experienced > 1 episode of a particular outlier event, the subject was counted only once for that event.

[7] = patients with rheumatoid arthritis or PsA, n = 15
[8] = apremilast 50 mg b.i.d., day 5, plasma
[9] = male, human, oral, apremilast 30 mg b.i.d., day 5, plasma
[10] = male, human, oral, apremilast 50 mg b.i.d., day 5, plasma
[11] = both apremilast doses, all time points
[12] = both apremilast doses, all values
[13] = apremilast 30 mg b.i.d., day 5, plasma

T1 sequence (Q12809 whole entry): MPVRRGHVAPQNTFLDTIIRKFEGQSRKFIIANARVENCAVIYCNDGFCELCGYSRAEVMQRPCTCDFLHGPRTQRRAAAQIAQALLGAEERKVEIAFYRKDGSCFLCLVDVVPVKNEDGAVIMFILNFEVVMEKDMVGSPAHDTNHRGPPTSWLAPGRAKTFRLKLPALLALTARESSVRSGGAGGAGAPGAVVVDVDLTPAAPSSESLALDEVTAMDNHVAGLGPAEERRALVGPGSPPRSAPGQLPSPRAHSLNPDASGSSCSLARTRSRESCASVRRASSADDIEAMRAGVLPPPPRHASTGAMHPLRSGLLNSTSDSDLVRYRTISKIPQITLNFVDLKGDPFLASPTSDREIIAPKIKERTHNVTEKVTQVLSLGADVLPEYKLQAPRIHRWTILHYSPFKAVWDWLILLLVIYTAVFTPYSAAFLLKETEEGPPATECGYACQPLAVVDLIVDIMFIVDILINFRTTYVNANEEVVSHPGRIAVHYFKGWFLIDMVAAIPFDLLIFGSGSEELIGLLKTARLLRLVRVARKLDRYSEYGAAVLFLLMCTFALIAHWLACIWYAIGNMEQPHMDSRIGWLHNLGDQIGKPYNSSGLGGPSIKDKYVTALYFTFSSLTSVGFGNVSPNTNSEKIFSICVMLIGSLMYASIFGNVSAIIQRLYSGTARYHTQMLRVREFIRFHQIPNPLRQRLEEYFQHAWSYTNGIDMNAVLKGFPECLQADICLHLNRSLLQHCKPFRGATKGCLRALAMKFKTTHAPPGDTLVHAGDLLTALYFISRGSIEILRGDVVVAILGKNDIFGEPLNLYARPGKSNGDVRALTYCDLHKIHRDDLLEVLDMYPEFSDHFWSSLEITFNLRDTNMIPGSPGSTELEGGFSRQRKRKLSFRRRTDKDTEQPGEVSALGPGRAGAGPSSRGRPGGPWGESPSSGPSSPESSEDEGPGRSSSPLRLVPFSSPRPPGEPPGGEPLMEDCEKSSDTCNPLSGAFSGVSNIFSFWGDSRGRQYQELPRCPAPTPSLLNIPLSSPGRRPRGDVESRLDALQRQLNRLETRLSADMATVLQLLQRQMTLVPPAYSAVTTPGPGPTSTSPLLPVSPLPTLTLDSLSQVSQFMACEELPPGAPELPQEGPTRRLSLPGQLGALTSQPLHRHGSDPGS

estimated slope (SE) of ΔΔQTcI vs plasma concentration (healthy male subjects [4]): –0.0016 (0.0027)
increase of AUC with increasing dose ([5]; 50 mg b.i.d. vs 30 mg b.i.d.): ~ 1.5 times
increase of Cmax with increasing dose ([5]; 50 mg b.i.d. vs 30 mg b.i.d.): ~ 1.4 times
t1/2, geometric mean (geometric CV%) [5, 8]: 7.28 (29.1) h
AUC [5, 9]: 2260 ng·h/mL
half-life ([5]; male, human, oral, apremilast 30 mg b.i.d., day 5, plasma, read-out: t1/2, geometric mean (geometric CV%) (converted)): 6.41 h
Tmax [5, 9]: 2 h
AUC [5, 10]: 3450 ng·h/mL
Tmax [5, 10]: 2 h
Cmax ([5]; male, human, plasma, oral, 30 mg, apremilast 30 mg b.i.d., day 5, plasma, read-out: Cmax, geometric mean (geometric CV%)): 352 ng/mL
Cmax ([5]; male, human, plasma, oral, 50 mg, apremilast 50 mg b.i.d., day 5, plasma, read-out: Cmax, geometric mean (geometric CV%)): 507 ng/mL
Cmax ([5]; male, human, plasma, oral, 50 mg, healthy subjects, 50 mg b.i.d., read-out: maximum Cmax): 1060 ng/mL
half-life ([5]; male, human, plasma, oral, across both doses (30 and 50 mg b.i.d.), read-out: mean t1/2): 6 to 7 h
AUC(0-t) ([5]; male, human, plasma, oral, healthy subjects, 50 mg b.i.d., read-out: maximum AUC0–12): 9350 ng·h/mL
Compound: CCOc1cc([C@@H](CS(C)(=O)=O)N2C(=O)c3cccc(NC(C)=O)c3C2=O)ccc1OC [apremilast, (S)-N-[2-[1-(3-ethoxy-4-methoxyphenyl)-2-methanesulfonylethyl]-1,3-dioxo-2,3-dihydro-1H-isoindol-4-yl] acetamide]
Hill coefficient of hERG current inhibition (hERG potassium channel; HEK293 cells expressing hERG): 0.9
IC50 (hERG potassium channel; HEK293 cells expressing hERG, read-out: hERG current inhibition, estimated half maximal inhibitory concentration (IC50)): 184 µM
IC50 (hERG potassium channel; HEK293 cells expressing hERG, same value in mass units, read-out: hERG current inhibition, estimated IC50 (converted)): 184 µM
affinity for the hERG channel (hERG potassium channel; voltage-clamp, HEK-293 cells stably expressing hERG): low affinity
hERG IC50 relative to Cmax at the highest doses studied (hERG potassium channel; vs Cmax in healthy male subjects and PsA or rheumatoid patients): > 2 orders of magnitude
safety and tolerability (healthy male subjects [1]): safe and well tolerated
half-life ([2]; humans): 6 to 9 h
maximum AUC0–12 ([3]; PsA and psoriasis patients): 8,280 ng×h/mL
maximum Cmax ([3]; PsA and psoriasis patients): 981 ng/mL
geometric mean Cmax [3, 7]: 554 ng/mL
mean AUC0–12 [3, 7]: 3,670 ng×h/mL
relationship between changes in QT/QTc interval and plasma concentration (healthy male subjects [4]): No trend or relationship
LS mean ΔΔQTcI (healthy male subjects [6]; apremilast 30 mg b.i.d., day 5, all time points): –4.2 to 0.7 ms
increase of time-matched, baseline-adjusted LS mean HR (ΔΔHR) (healthy male subjects [6]; apremilast 30 mg dose, 2 hours after administration): 3.1 bpm
decrease of time-matched, baseline-adjusted LS mean PR interval (ΔΔPR) (healthy male subjects [6]; apremilast 30 mg dose): 2.8 ms
decrease of time-matched, baseline-adjusted LS mean PR interval (ΔΔPR) (healthy male subjects [6]; apremilast 50 mg dose): 3.5 ms
increase of time-matched, baseline-adjusted LS mean HR (ΔΔHR) (healthy male subjects [6]; apremilast 50 mg dose, 3 hours after administration): 4.4 bpm
LS mean ΔΔQTcI (healthy male subjects [6]; both apremilast doses (30 and 50 mg b.i.d.), all time points): < 1 ms
upper limit of two-sided 90% CI of ΔΔQTcB (healthy male subjects [6]; [11]): below 10 ms
upper limit of two-sided 90% CI of ΔΔQTcF (healthy male subjects [6]; [11]): below 10 ms
LS mean ΔΔQTcB (healthy male subjects [6]; [12]): < 5 ms
LS mean ΔΔQTcF (healthy male subjects [6]; [12]): < 1 ms
subjects with maximum on-treatment QT/QTc interval > 480 ms or change from baseline > 60 ms (healthy male subjects [6]; categorical analysis, while receiving apremilast): No subject
effect on the QT/QTc interval (healthy male subjects [6]): did not prolong the QT interval

Compound: COc1c(N2C[C@@H]3CCCN[C@@H]3C2)c(F)cc2c(=O)c(C(=O)O)cn(C3CC3)c12 [moxifloxacin]
effect on the QT/QTc interval (healthy male subjects [6]): significantly increased the QT/QTc interval

estimated slope (SE) of ΔΔQTcI vs plasma concentration (healthy male subjects [4]): –0.0006 (0.0028)
t1/2, geometric mean (geometric CV%) [5, 13]: 12.18 (25.9)^c h
tmax, median (minimum–maximum) [5, 13]: 3.0 (1.0 – 12.0) h
AUC0–τ, geometric mean (geometric CV%) [5, 13]: 3,930 (23.9) ng×h/mL
Cmax, geometric mean (geometric CV%) [5, 8]: 659.1 (21.0) ng/mL
t1/2, geometric mean (geometric CV%) [5, 8]: 12.79 (29.0)^e h
tmax, median (minimum–maximum) [5, 8]: 3.0 (0.5 – 6.0) h
AUC0–τ, geometric mean (geometric CV%) [5, 8]: 5,968 (20.0) ng×h/mL
AUC of metabolite relative to apremilast ([5]; plasma, day 5): ~ 1.7 fold
Cmax of metabolite relative to apremilast ([5]; plasma, day 5): ~ 1.25 fold
Compound: O-des-methyl-[S]-CC-10004-glucuronide [M12]
pharmacological activity ([2]; glucuronide metabolites): not pharmacologically active
half-life ([2]; humans): ~ 16 hours
metabolite to total radioactivity ratio ([2]; humans): ~ 39%
relationship between changes in QT/QTc interval and plasma concentration (healthy male subjects [4]): No trend or relationship
